Biological target: T1, cytosolic phosphoenolpyruvate carboxykinase (PCK1) (Rattus norvegicus, UniProt P07379)
T1 sequence (P07379 1-622): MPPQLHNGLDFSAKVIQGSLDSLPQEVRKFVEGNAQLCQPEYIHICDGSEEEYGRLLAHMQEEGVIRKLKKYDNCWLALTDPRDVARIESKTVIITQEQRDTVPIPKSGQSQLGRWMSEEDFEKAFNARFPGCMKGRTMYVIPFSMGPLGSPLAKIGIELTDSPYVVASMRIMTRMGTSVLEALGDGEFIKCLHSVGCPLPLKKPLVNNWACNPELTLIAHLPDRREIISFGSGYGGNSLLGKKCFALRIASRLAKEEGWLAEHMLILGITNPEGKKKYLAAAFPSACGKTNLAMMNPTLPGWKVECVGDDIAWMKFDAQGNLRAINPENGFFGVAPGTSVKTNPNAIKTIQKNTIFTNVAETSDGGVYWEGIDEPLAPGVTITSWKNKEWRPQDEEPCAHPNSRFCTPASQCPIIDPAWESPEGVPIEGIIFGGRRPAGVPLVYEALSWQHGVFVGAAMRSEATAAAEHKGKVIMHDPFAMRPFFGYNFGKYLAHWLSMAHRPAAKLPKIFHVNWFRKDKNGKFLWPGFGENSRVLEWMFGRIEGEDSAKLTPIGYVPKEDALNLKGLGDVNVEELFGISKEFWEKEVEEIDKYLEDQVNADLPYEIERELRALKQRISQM
Experiment: STD NMR and DEEP-STD NMR
Assay type: binding

CC(C)(COP(=O)(O)OP(=O)(O)OC[C@H]1O[C@@H](n2cnc3c(N)ncnc32)[C@H](O)[C@@H]1OP(=O)(O)O)[C@@H](O)C(=O)NCCC(=O)NCCS [coenzyme A]
STD NMR and DEEP-STD NMR: STD NMR experiments showed clear STD signals for both, acetyl-CoA and CoA (see Fig. S4), confirming that they bind to PCK1
